# In ChEMBL document CHEMBL1152560, “Substituted 2-arylbenzothiazoles as kinase inhibitors: hit-to-lead optimization” (Bioorg Med Chem, 2009):
# Legend:
# [1] = target: T1, Serine/threonine-protein kinase BRSK1 (Homo sapiens) (UniProt Q8TDC3); assay: Residual activity of BRSK1 at 1 uM by microplate scintillation counting
# T1 sequence (whole entry): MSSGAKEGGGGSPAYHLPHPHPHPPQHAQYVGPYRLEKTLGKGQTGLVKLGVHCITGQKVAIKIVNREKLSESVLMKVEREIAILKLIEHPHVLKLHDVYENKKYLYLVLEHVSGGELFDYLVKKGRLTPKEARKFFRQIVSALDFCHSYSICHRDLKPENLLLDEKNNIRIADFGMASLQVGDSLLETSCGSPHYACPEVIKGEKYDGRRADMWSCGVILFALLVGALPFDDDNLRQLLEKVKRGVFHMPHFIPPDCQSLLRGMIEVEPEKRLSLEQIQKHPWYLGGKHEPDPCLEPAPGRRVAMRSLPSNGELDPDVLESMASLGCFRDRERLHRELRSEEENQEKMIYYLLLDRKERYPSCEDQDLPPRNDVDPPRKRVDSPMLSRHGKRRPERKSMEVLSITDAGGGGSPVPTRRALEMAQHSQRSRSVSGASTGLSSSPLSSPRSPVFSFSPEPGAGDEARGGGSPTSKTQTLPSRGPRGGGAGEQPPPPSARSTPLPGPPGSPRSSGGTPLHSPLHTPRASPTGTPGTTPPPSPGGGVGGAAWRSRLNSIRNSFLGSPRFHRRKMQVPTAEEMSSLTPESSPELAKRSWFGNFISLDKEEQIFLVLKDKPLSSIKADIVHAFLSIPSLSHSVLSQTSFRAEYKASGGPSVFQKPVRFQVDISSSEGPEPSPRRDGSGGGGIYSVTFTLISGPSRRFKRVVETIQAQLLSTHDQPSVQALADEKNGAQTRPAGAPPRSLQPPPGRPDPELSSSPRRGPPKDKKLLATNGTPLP
# [2] = target: Protein-tyrosine kinase 2-beta (Homo sapiens) (UniProt Q14289); assay: Residual activity of PYK2 at 10 uM by microplate scintillation counting
# [3] = target: T2, TGF-beta receptor type-1 (Homo sapiens) (UniProt P36897); assay: Residual activity of TGFB-R1 at 0.1 uM by microplate scintillation counting
# T2 sequence (whole entry): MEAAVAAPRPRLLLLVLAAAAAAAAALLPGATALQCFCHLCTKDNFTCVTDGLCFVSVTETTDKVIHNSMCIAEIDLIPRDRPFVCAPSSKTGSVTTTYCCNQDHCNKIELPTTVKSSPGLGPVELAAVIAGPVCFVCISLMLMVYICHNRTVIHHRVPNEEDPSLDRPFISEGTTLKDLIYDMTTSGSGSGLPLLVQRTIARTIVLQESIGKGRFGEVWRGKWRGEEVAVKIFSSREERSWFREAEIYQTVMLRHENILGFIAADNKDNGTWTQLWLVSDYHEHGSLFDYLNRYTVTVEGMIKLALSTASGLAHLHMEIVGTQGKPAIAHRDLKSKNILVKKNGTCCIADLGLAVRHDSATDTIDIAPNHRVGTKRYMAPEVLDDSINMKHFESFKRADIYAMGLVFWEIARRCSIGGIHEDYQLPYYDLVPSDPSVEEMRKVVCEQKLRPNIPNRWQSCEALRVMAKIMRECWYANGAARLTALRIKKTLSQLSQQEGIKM
# [4] = target: Death-associated protein kinase 2 (Homo sapiens) (UniProt Q9UIK4); assay: Residual activity of DAPK2 at 10 uM by microplate scintillation counting
# [5] = target: Insulin receptor-related protein (Homo sapiens) (UniProt P14616); assay: Residual activity of INSRR at 0.1 uM by microplate scintillation counting
# [6] = target: Receptor-type tyrosine-protein kinase FLT3 (Homo sapiens) (UniProt P36888); assay: Residual activity of wild type FLT3 at 0.1 uM by microplate scintillation counting
# [7] = target: Serine/threonine-protein kinase PAK 6 (Homo sapiens) (UniProt Q9NQU5); assay: Residual activity of PAK6 at 0.1 uM by microplate scintillation counting
# [8] = target: T3, Calcium/calmodulin-dependent protein kinase type IV (Homo sapiens) (UniProt Q16566); assay: Residual activity of CAMK4 at 0.1 uM by microplate scintillation counting
# T3 sequence (whole entry): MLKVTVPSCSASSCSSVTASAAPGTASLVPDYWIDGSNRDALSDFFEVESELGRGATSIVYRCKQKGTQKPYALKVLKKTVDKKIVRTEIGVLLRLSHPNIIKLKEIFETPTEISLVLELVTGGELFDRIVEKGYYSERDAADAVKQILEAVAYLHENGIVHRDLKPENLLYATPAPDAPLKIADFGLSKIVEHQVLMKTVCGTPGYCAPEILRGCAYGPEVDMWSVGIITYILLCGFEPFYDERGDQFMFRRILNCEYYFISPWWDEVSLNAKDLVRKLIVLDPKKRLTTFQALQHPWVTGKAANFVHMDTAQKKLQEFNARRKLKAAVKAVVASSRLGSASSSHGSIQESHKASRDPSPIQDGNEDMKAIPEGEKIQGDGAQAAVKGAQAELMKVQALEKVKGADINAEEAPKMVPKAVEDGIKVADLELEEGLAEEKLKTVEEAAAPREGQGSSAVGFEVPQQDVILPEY
# [9] = target: Cyclin-dependent kinase 4/cyclin D1 (Homo sapiens) (UniProt P11802+P24385); assay: Residual activity of CDK4/Cyclin D1 at 0.1 uM by microplate scintillation counting; format: protein-complex assay
# [10] = target: Insulin receptor (Homo sapiens) (UniProt P06213); assay: Residual activity of INSR at 1 uM by microplate scintillation counting
# Chain of Protein-tyrosine kinase 2-beta (Homo sapiens) (Q14289 whole entry, looked up): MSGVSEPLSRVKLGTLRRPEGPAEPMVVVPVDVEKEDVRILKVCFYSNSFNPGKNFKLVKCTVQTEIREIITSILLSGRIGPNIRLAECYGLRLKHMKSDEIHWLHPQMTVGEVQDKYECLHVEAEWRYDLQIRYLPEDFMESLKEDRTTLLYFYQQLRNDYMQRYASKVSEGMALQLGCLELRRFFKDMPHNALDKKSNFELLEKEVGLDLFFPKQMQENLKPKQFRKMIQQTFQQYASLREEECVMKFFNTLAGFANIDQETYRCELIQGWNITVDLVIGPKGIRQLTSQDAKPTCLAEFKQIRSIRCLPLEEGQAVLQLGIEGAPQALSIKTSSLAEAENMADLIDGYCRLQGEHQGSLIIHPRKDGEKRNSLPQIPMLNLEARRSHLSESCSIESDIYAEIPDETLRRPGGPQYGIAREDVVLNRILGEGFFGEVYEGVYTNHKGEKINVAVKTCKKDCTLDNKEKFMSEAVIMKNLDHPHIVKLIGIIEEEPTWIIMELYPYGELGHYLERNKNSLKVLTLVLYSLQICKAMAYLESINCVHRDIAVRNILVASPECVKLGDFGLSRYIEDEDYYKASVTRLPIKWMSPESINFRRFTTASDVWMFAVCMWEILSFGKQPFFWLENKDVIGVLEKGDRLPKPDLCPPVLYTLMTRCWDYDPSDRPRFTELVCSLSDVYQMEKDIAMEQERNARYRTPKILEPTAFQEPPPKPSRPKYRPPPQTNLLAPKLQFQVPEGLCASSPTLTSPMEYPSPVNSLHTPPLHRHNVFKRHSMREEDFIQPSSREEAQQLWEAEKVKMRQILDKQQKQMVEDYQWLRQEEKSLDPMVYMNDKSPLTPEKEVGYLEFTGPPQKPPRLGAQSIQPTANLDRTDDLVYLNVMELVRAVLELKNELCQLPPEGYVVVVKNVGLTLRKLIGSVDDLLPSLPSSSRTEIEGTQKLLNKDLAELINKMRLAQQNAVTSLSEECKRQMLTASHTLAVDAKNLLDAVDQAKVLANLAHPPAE
# Chain of Receptor-type tyrosine-protein kinase FLT3 (Homo sapiens) (P36888 whole entry): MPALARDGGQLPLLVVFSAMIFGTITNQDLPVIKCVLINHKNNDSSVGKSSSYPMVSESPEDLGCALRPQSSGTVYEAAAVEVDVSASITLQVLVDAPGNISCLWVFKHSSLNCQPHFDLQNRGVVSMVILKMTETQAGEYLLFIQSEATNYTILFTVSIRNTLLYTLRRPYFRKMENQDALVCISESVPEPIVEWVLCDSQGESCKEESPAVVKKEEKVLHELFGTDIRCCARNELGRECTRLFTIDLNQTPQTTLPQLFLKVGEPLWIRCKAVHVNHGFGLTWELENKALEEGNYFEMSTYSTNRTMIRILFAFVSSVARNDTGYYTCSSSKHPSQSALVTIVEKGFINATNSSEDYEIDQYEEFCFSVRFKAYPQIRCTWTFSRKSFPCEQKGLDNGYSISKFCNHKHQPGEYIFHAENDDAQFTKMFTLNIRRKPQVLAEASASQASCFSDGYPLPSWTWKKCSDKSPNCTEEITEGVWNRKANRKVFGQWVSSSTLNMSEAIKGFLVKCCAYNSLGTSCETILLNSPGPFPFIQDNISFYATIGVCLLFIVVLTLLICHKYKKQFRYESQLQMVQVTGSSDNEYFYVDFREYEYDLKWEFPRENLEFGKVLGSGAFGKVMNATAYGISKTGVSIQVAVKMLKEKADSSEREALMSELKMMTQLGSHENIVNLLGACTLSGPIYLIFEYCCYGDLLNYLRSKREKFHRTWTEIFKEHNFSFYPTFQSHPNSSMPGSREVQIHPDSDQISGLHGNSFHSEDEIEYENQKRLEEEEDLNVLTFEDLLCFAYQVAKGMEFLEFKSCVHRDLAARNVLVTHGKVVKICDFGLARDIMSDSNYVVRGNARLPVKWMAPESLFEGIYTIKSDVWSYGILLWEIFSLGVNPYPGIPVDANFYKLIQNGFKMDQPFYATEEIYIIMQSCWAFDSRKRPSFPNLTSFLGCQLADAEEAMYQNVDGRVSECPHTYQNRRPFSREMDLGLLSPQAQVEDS
# Chain of Serine/threonine-protein kinase PAK 6 (Homo sapiens) (Q9NQU5 whole entry, looked up): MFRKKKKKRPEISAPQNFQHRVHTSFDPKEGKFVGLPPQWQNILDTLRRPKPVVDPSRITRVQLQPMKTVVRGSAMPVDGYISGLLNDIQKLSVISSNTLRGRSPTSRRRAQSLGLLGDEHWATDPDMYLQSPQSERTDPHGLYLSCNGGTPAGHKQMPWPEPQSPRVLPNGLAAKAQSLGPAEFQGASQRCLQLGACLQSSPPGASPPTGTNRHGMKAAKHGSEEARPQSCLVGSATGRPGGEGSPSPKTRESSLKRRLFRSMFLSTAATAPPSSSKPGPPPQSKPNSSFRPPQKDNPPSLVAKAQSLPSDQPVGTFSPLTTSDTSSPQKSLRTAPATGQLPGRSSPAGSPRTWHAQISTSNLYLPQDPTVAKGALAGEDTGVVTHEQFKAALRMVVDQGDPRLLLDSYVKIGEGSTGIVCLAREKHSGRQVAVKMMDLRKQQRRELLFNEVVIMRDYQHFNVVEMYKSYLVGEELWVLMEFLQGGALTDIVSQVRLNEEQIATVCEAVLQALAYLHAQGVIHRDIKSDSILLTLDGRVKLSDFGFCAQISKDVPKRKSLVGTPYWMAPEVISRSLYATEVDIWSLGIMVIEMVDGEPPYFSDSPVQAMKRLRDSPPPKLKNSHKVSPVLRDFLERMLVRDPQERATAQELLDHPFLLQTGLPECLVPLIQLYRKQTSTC
# Chain of Death-associated protein kinase 2 (Homo sapiens) (Q9UIK4 whole entry, looked up): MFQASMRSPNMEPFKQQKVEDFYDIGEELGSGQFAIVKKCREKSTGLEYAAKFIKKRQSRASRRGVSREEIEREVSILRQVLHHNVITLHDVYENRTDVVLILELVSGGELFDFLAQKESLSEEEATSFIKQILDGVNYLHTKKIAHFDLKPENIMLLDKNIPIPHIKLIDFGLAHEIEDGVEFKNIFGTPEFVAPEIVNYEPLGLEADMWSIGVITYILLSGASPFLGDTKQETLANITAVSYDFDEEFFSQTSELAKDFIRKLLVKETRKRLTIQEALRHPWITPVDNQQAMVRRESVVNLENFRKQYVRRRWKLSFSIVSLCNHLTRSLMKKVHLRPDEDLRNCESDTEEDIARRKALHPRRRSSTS
# Chain of Insulin receptor-related protein (Homo sapiens) (P14616 27-742 limits assumed): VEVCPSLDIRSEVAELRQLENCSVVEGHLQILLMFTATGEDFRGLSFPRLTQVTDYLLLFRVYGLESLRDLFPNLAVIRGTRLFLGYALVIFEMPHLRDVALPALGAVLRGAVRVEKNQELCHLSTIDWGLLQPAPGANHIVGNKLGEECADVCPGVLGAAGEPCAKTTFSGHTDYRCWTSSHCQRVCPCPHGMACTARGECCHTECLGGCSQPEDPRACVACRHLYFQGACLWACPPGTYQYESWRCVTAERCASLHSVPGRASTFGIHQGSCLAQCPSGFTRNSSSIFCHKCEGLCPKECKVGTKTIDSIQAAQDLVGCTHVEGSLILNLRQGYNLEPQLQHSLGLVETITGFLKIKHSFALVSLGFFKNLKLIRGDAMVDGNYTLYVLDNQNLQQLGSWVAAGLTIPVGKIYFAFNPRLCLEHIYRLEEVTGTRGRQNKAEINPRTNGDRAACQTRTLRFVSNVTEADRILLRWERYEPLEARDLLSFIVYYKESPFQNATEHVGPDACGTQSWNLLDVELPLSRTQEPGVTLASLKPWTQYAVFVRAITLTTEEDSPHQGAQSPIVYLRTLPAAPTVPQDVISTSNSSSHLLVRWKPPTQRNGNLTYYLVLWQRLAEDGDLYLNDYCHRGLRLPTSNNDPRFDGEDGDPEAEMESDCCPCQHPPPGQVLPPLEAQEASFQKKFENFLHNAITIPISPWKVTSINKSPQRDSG
# Chain of Insulin receptor-related protein (Homo sapiens) (P14616 747-1297 limits assumed): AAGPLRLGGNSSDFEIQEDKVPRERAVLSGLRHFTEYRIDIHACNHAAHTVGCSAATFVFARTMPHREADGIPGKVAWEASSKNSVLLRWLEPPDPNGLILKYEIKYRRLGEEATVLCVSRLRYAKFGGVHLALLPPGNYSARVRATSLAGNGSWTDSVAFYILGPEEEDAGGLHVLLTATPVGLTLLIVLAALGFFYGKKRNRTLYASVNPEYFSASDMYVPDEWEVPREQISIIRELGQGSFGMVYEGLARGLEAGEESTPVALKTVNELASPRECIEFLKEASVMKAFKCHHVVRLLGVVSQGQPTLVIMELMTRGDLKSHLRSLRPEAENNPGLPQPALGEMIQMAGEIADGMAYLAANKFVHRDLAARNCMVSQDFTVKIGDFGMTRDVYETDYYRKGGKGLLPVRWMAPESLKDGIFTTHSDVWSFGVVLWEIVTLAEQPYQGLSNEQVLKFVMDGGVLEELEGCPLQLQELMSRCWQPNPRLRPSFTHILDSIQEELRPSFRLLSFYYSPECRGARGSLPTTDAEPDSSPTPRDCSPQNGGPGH
Compound,residual activity [1],residual activity [2],residual activity [3],residual activity [4],residual activity [5],residual activity [6],residual activity [7],residual activity [8],residual activity [9],residual activity [10]
COc1cc2c(Oc3ccc(-c4nc5ccccc5s4)cc3)ncnc2cc1OCCCN1CCN(C)CC1,91%,95%,102%,15%,96%,112%,69%,96%,96%,98%
COc1cc2c(Oc3ccc(-c4nc5ccccc5s4)cc3F)ncnc2cc1OCCCN1CCN(C)CC1,91%,54%,96%,16%,116%,130%,98%,97%,98%,97%
COc1cc2c(Oc3ccc(-c4nc5ccccc5s4)cc3)ncnc2cc1OCCCN1CCCC1,91%,113%,90%,20%,97%,95%,99%,102%,98%,95%
